Earlier results as cited in patent publication US10485754B2, “Method for the production of a sodium ion-free effervescent tablet, powder or granulate having a high X ion content, where X can be a variety of substances” (BIOFAR LABORATOIRES, priority 2014, dated 2019).

## O=C([O-])[O-].[Ca+2] [calcium carbonate]
water
  calcium carbonate that can be dissolved in one liter of water: 0.014 grams in one liter of water
With CO2 soda in the water
  calcium carbonate that can be dissolved in one liter of water with CO2: up to 16.6 grams in one liter of water
